Test results from patent US4740233A, “Substituted 1,2,4-triazolo[1,5-a]-pyrimidine-2-sulfonamides and compositions and methods of controlling undesired vegetation and suppressing the nitrification of ammonium nitrogen in soil” (The Dow Chemical Company, priority 1986, dated 1988).

What was measured:
wild oats = assay: Preemergent control of plant species; format: in vivo; settings: Avena fatua, pre-emergence, 336 h; 0.25 lb/acre; read-out: percent preemergent control
Protocol: (§1) The seeds of various species of plants were planted in beds of good agricultural soil in a greenhouse. A number of compositions of the present invention, generally in the nature of an aqueous emulsion, were applied at rates listed in the table so as to deposit a predetermined amount of active ingredients uniformly throughout the surface of the bed. Another seed bed was treated only with water to serve as a control. After treatment the seed beds were maintained for two weeks under greenhouse conditions conducive for good plant growth and watered as necessary. Control refers to the reduction in growth compared to the observed results of the same untreated species.

barnyardgrass = assay: Preemergent control of plant species; format: in vivo, Echinochloa crusgalli; settings: Echinochloa crus-galli, pre-emergence, 336 h; 0.25 lb/acre; read-out: percent preemergent control
Protocol: as §1

cotton = assay: Preemergent control of plant species; format: in vivo, Gossypium spp.; settings: Gossypium hirsutum, pre-emergence, 336 h; 0.25 lb/acre; read-out: percent preemergent control
Protocol: as §1

annual morning glory = assay: Preemergent control of plant species; format: in vivo, Ipomoea spp.; settings: Ipomoea, pre-emergence, 336 h; 0.25 lb/acre; read-out: percent preemergent control
Protocol: as §1

yellow nutsedge = assay: Preemergent control of plant species; format: in vivo, Cyperus esculentus; settings: Cyperus, pre-emergence, 336 h; 0.25 lb/acre; read-out: percent preemergent control
Protocol: as §1

rape = assay: Preemergent control of plant species; format: in vivo, Brassica napus; settings: Brassica napus, pre-emergence, 336 h; 0.25 lb/acre; read-out: percent preemergent control
Protocol: as §1

sugar beet = assay: Preemergent control of plant species; format: in vivo, Beta saccharifera; settings: Beta vulgaris, pre-emergence, 336 h; 0.25 lb/acre; read-out: percent preemergent control
Protocol: as §1

johnson grass = assay: Preemergent control of plant species; format: in vivo, Sorghum halepense; settings: Sorghum halepense, pre-emergence, 336 h; 0.25 lb/acre; read-out: percent preemergent control
Protocol: as §1

corn = assay: Preemergent control of plant species; format: in vivo, Zea mays; settings: Zea mays, pre-emergence, 336 h; 0.25 lb/acre; read-out: percent preemergent control
Protocol: as §1

[1] = test system: nitrification of ammonium nitrogen; assay: Suppression of nitrification of ammonium nitrogen in soil; settings: 27° C.
Protocol: A sufficient volume of water was added to 20 g of the soil in a wide-mouth, screw-cap, 4-ounce, glass bottle, such that the moisture content of the mixture was made equal to the 1/3 bar tension value for that soil. The mixture was thoroughly mixed before sealing. […] Acetone slows the rate of soil nitrification and its concentration must be carefully controlled. Single samples of each test chemical were incubated for two weeks at 27° C.
The experiment comprised the following types of samples:
The soil samples were analyzed as follows: Sufficient ammonium sulfate extracting solution was added to the sample, such that the total volume of added water was 50 ml (included water added during sample preparation). The capped mixture was shaken 10 minutes to solubilize nitrate and the soil particulates were allowed to settle. The nitrate concentration in the water phase was determined with a nitrate-specific ion electrode such as Orion Model 93-07.
The non-nitrate nitrogen remaining (% NH4 -N remaining) in the soil after two weeks (performance value) was calculated as follows: [formula]

velvetleaf = assay: Preemergent control of plant species; format: in vivo, Abutilon theophrasti; settings: Abutilon theophrasti, pre-emergence, 336 h; 0.25 lb/acre; read-out: percent preemergent control
Protocol: as §1

jimsonweed = assay: Preemergent control of plant species; format: in vivo, Datura stramonium; settings: Datura stramonium, pre-emergence, 336 h; 0.25 lb/acre; read-out: percent preemergent control
Protocol: as §1

wheat = assay: Preemergent control of plant species; format: in vivo, Triticum aestivum; settings: Triticum aestivum, pre-emergence, 336 h; 0.25 lb/acre; read-out: percent preemergent control
Protocol: as §1

soybean = assay: Preemergent control of plant species; format: in vivo, Glycine max.; settings: Glycine max, pre-emergence, 336 h; 0.25 lb/acre; read-out: percent preemergent control
Protocol: as §1

rice = assay: Preemergent control of plant species; format: in vivo, Oryza sativa; settings: Oryza sativa, pre-emergence, 336 h; 0.25 lb/acre; read-out: percent preemergent control
Protocol: as §1

yellow foxtail = assay: Preemergent control of plant species; format: in vivo, Setaria lutescens; settings: Setaria, pre-emergence, 336 h; 0.25 lb/acre; read-out: percent preemergent control
Protocol: as §1

Q: For Cc1cc(C)n2nc(S(=O)(=O)Nc3c(F)cccc3C(=O)OC(C)(C)C)nc2n1 [Compound 56], which pest or weed control at 280.212 g/ha (wild oats) is on record?
A: Its pest or weed control at 280.212 g/ha is 0%.

Q: What about the pest or weed control at 280.212 g/ha (barnyardgrass) of the same compound?
A: The pest or weed control at 280.212 g/ha was 0%.

Q: And the plant injury at 280.212 g/ha (cotton)?
A: Its plant injury at 280.212 g/ha is 0%.

Q: And the pest or weed control at 280.212 g/ha (annual morning glory)?
A: The pest or weed control at 280.212 g/ha was 90%.

Q: What about the pest or weed control at 280.212 g/ha (yellow nutsedge) of the same compound?
A: Its pest or weed control at 280.212 g/ha is 70%.

Q: And the plant injury at 280.212 g/ha (rape)?
A: Its plant injury at 280.212 g/ha is 100%.

Q: And the plant injury at 280.212 g/ha (sugar beet)?
A: The plant injury at 280.212 g/ha was 100%.

Q: What about the pest or weed control at 280.212 g/ha (johnson grass) of the same compound?
A: Its pest or weed control at 280.212 g/ha is 0%.

Q: What about the plant injury at 280.212 g/ha (corn) of the same compound?
A: The plant injury at 280.212 g/ha was 30%.

Q: What about the “% NH4-N Remaining After 2 Weeks Incubation” value ([1]; 0.06 ppm) of the same compound?
A: The value was 0%.

Q: And the “% NH4-N Remaining After 2 Weeks Incubation” value ([1]; 0.25 ppm)?
A: The value was 37%.

Q: What about the “% NH4-N Remaining After 2 Weeks Incubation” value ([1]; 1 ppm) of the same compound?
A: The value was 59%.

Q: And the “% NH4-N Remaining After 2 Weeks Incubation” value ([1]; 4 ppm)?
A: The value was 78%.

Q: And the pest or weed control at 280.212 g/ha (velvetleaf)?
A: Its pest or weed control at 280.212 g/ha is 50%.

Q: And the pest or weed control at 280.212 g/ha (jimsonweed)?
A: The pest or weed control at 280.212 g/ha was 0%.

Q: What about the plant injury at 280.212 g/ha (wheat) of the same compound?
A: Its plant injury at 280.212 g/ha is 0%.

Q: And the plant injury at 280.212 g/ha (soybean)?
A: The plant injury at 280.212 g/ha was 0%.

Q: What about the plant injury at 280.212 g/ha (rice) of the same compound?
A: The plant injury at 280.212 g/ha was 0%.

Q: What about the pest or weed control at 280.212 g/ha (yellow foxtail) of the same compound?
A: Its pest or weed control at 280.212 g/ha is 20%.

Q: How did the pest or weed control at 280.212 g/ha (wild oats) turn out when Cc1ccn2nc(S(=O)(=O)Nc3c(C)cccc3Cl)nc2n1 [Compound 144] was run?
A: Its pest or weed control at 280.212 g/ha is 70%.

Q: And the pest or weed control at 280.212 g/ha (barnyardgrass)?
A: The pest or weed control at 280.212 g/ha was 80%.

Q: What about the plant injury at 280.212 g/ha (cotton) of the same compound?
A: The plant injury at 280.212 g/ha was 100%.

Q: And the pest or weed control at 280.212 g/ha (annual morning glory)?
A: The pest or weed control at 280.212 g/ha was 95%.

Q: What about the pest or weed control at 280.212 g/ha (yellow nutsedge) of the same compound?
A: The pest or weed control at 280.212 g/ha was 100%.

Q: What about the plant injury at 280.212 g/ha (rape) of the same compound?
A: The plant injury at 280.212 g/ha was 100%.

Q: And the plant injury at 280.212 g/ha (sugar beet)?
A: Its plant injury at 280.212 g/ha is 100%.

Q: What about the pest or weed control at 280.212 g/ha (johnson grass) of the same compound?
A: Its pest or weed control at 280.212 g/ha is 100%.

Q: And the plant injury at 280.212 g/ha (corn)?
A: The plant injury at 280.212 g/ha was 70%.

Q: And the “% NH4-N Remaining After 2 Weeks Incubation” value ([1]; 0.06 ppm)?
A: Its value is 16%.

Q: And the “% NH4-N Remaining After 2 Weeks Incubation” value ([1]; 0.25 ppm)?
A: Its value is 43%.

Q: What about the “% NH4-N Remaining After 2 Weeks Incubation” value ([1]; 1 ppm) of the same compound?
A: Its value is 63%.

Q: What about the “% NH4-N Remaining After 2 Weeks Incubation” value ([1]; 4 ppm) of the same compound?
A: Its value is 92%.

Q: And the pest or weed control at 280.212 g/ha (velvetleaf)?
A: Its pest or weed control at 280.212 g/ha is 100%.

Q: And the pest or weed control at 280.212 g/ha (jimsonweed)?
A: Its pest or weed control at 280.212 g/ha is 100%.

Q: And the plant injury at 280.212 g/ha (wheat)?
A: Its plant injury at 280.212 g/ha is 0%.

Q: What about the plant injury at 280.212 g/ha (soybean) of the same compound?
A: The plant injury at 280.212 g/ha was 60%.

Q: What about the plant injury at 280.212 g/ha (rice) of the same compound?
A: Its plant injury at 280.212 g/ha is 40%.

Q: What about the pest or weed control at 280.212 g/ha (yellow foxtail) of the same compound?
A: Its pest or weed control at 280.212 g/ha is 100%.

Q: Which pest or weed control at 280.212 g/ha (wild oats) does the source give for Cc1cnc2nc(S(=O)(=O)Nc3c(Cl)cccc3Cl)nn2c1 [Compound 192] here?
A: Its pest or weed control at 280.212 g/ha is 0%.

Q: And the pest or weed control at 280.212 g/ha (barnyardgrass)?
A: Its pest or weed control at 280.212 g/ha is 0%.

Q: And the plant injury at 280.212 g/ha (cotton)?
A: The plant injury at 280.212 g/ha was 95%.

Q: And the pest or weed control at 280.212 g/ha (annual morning glory)?
A: Its pest or weed control at 280.212 g/ha is 97%.

Q: What about the pest or weed control at 280.212 g/ha (yellow nutsedge) of the same compound?
A: The pest or weed control at 280.212 g/ha was 90%.

Q: What about the plant injury at 280.212 g/ha (rape) of the same compound?
A: The plant injury at 280.212 g/ha was 100%.

Q: What about the plant injury at 280.212 g/ha (sugar beet) of the same compound?
A: The plant injury at 280.212 g/ha was 100%.

Q: And the pest or weed control at 280.212 g/ha (johnson grass)?
A: The pest or weed control at 280.212 g/ha was 0%.

Q: What about the plant injury at 280.212 g/ha (corn) of the same compound?
A: The plant injury at 280.212 g/ha was 10%.

Q: What about the “% NH4-N Remaining After 2 Weeks Incubation” value ([1]; 0.06 ppm) of the same compound?
A: Its value is 21%.

Q: What about the “% NH4-N Remaining After 2 Weeks Incubation” value ([1]; 0.25 ppm) of the same compound?
A: The value was 48%.

Q: What about the “% NH4-N Remaining After 2 Weeks Incubation” value ([1]; 1 ppm) of the same compound?
A: Its value is 74%.

Q: What about the “% NH4-N Remaining After 2 Weeks Incubation” value ([1]; 4 ppm) of the same compound?
A: Its value is 86%.

Q: What about the pest or weed control at 280.212 g/ha (velvetleaf) of the same compound?
A: The pest or weed control at 280.212 g/ha was 100%.

Q: What about the pest or weed control at 280.212 g/ha (jimsonweed) of the same compound?
A: The pest or weed control at 280.212 g/ha was 100%.

Q: What about the plant injury at 280.212 g/ha (wheat) of the same compound?
A: The plant injury at 280.212 g/ha was 0%.

Q: What about the plant injury at 280.212 g/ha (soybean) of the same compound?
A: Its plant injury at 280.212 g/ha is 90%.

Q: What about the plant injury at 280.212 g/ha (rice) of the same compound?
A: Its plant injury at 280.212 g/ha is 0%.

Q: And the pest or weed control at 280.212 g/ha (yellow foxtail)?
A: The pest or weed control at 280.212 g/ha was 70%.

Q: What does the source list for Cc1ccc(Cl)c(NS(=O)(=O)c2nc3nc(C)c(Cl)c(C)n3n2)c1Cl [Compound 199]?
A: pest or weed control at 280.212 g/ha (wild oats): 0%; plant injury at 280.212 g/ha (cotton): 20%; pest or weed control at 280.212 g/ha (annual morning glory): 20%; pest or weed control at 280.212 g/ha (yellow nutsedge): 0%; plant injury at 280.212 g/ha (rape): 100%; plant injury at 280.212 g/ha (sugar beet): 90%; pest or weed control at 280.212 g/ha (johnson grass): 0%; plant injury at 280.212 g/ha (corn): 0%; % NH4-N Remaining After 2 Weeks Incubation ([1]; 0.06 ppm): 40%; % NH4-N Remaining After 2 Weeks Incubation ([1]; 0.25 ppm): 63%; % NH4-N Remaining After 2 Weeks Incubation ([1]; 1 ppm): 78%; % NH4-N Remaining After 2 Weeks Incubation ([1]; 4 ppm): 88%; pest or weed control at 280.212 g/ha (velvetleaf): 70%; pest or weed control at 280.212 g/ha (jimsonweed): 0%; plant injury at 280.212 g/ha (soybean): 70%; plant injury at 280.212 g/ha (rice): 0%; pest or weed control at 280.212 g/ha (yellow foxtail): 0%
